# Data published in patent US10385022B2, “3-amino-pyridines as GPBAR1 agonists” (HOFFMANN-LA ROCHE INC., priority 2011, dated 2019).
# Biological target: human GPBAR1 receptor (Homo sapiens (Human), UniProt Q8TDU6)
# Test: functional cAMP assay in CHO-dhfr(minus) cells expressing human GPBAR1 receptors
# Format: cell-based
# Conditions: CHO-dhfr(minus) cells expressing human GPBAR1, 30 min at 30° C.
# Summary of the method: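 Functional cAMP responses in a human GPBAR1-transfected CHO-dhfr- clone, picked using lithocholic acid as agonist, gave the EC50 values. Parallel testing in untransfected CHO cells served as a specificity control.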
# Sequence of human GPBAR1 receptor (Q8TDU6 whole entry): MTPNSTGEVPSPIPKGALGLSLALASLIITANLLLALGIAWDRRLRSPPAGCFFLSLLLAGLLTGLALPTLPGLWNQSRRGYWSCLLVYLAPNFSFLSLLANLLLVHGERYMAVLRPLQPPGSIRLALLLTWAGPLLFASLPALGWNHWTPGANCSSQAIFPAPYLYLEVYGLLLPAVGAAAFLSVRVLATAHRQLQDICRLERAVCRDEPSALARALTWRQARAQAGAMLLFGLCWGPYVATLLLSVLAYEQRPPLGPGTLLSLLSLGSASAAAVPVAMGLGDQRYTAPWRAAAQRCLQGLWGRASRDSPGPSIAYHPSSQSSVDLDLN
row,EC50,SMILES
1,0.09 µM,"Cc1ccccc1-c1ccncc1N(CC(F)(F)F)C(=O)c1cc(C(F)(F)F)nc(C(F)(F)F)c1 [Example 150, N-(4-o-Tolyl-pyridin-3-yl)-N-(2,2,2-trifluoro-ethyl)-2,6-bis-trifluoromethyl-isonicotinamide]"
2,0.047 µM,"O=C(c1cc(C(F)(F)F)nc(C(F)(F)F)c1)N(CC(F)(F)F)c1cnccc1-c1ccccc1F [Example 151, N-[4-(2-Fluoro-phenyl)-pyridin-3-yl]-N-(2,2,2-trifluoro-ethyl)-2,6-bis-trifluoromethyl-isonicotinamide]"
3,0.558 µM,"Cc1ccccc1-c1ccncc1N(C)C(=O)c1cc(N2CCOCC2)cc(C(F)(F)F)c1 [Example 152, N-Methyl-3-morpholin-4-yl-N-(4-o-tolyl-pyridin-3-yl)-5-trifluoromethyl-benzamide]"
4,0.019 µM,"COc1cc(F)ccc1-c1ccncc1N(CC(F)F)C(=O)c1cc(C(F)(F)F)nc(C(F)(F)F)c1 [Example 153, N-(2,2-Difluoro-ethyl)-N-[4-(4-fluoro-2-methoxy-phenyl)-pyridin-3-yl]-2,6-bis-trifluoromethyl-isonicotinamide]"
5,0.039 µM,"COc1cc(F)c(F)cc1-c1ccncc1N(CC(F)F)C(=O)c1cc(C(F)(F)F)nc(C(F)(F)F)c1 [Example 154, N-(2,2-Difluoro-ethyl)-N-[4-(4,5-difluoro-2-methoxy-phenyl)-pyridin-3-yl]-2,6-bis-trifluoromethyl-isonicotinamide]"
6,0.038 µM,"O=C(c1cc(C(F)(F)F)nc(C(F)(F)F)c1)N(CC(F)F)c1cnccc1-c1ccccc1F [Example 155, N-(2,2-Difluoro-ethyl)-N-[4-(2-fluoro-phenyl)-pyridin-3-yl]-2,6-bis-trifluoromethyl-isonicotinamide]"
7,0.036 µM,"COc1ncccc1-c1ccncc1N(CC(F)F)C(=O)c1cc(C(F)(F)F)nc(C(F)(F)F)c1 [Example 156, N-(2,2-Difluoro-ethyl)-N-(2-methoxy-[3,4′]bipyridinyl-3′-yl)-2,6-bis-trifluoromethyl-isonicotinamide]"
8,0.088 µM,"Cc1ccccc1-c1ccncc1N(CC(F)F)C(=O)c1cc(C(F)(F)F)nc(C(F)(F)F)c1 [Example 157, N-(2,2-Difluoro-ethyl)-N-(4-o-tolyl-pyridin-3-yl)-2,6-bis-trifluoromethyl-isonicotinamide]"
9,0.21 µM,"COc1cc(F)c(F)cc1-c1ccncc1N(CCS(C)(=O)=O)C(=O)c1cc(C(F)(F)F)nc(C(F)(F)F)c1 [Example 158, N-[4-(4,5-Difluoro-2-methoxy-phenyl)-pyridin-3-yl]-N-(2-methanesulfonyl-ethyl)-2,6-bis-trifluoromethyl-isonicotinamide]"
10,0.326 µM,"CS(=O)(=O)CCN(C(=O)c1cc(C(F)(F)F)nc(C(F)(F)F)c1)c1cnccc1-c1ccccc1F [Example 159, N-[4-(2-Fluoro-phenyl)-pyridin-3-yl]-N-(2-methanesulfonyl-ethyl)-2,6-bis-trifluoromethyl-isonicotinamide]"
11,0.281 µM,"COc1ncccc1-c1ccncc1N(CCS(C)(=O)=O)C(=O)c1cc(C(F)(F)F)nc(C(F)(F)F)c1 [Example 160, N-(2-Methanesulfonyl-ethyl)-N-(2-methoxy-[3,4′]bipyridinyl-3′-yl)-2,6-bis-trifluoromethyl-isonicotinamide]"
12,0.029 µM,"Cc1ccccc1-c1ccncc1N(CC#N)C(=O)c1cc(C(F)(F)F)cc(C(F)(F)F)c1 [Example 161, N-Cyanomethyl-N-(4-o-tolyl-pyridin-3-yl)-3,5-bis-trifluoromethyl-benzamide]"
13,0.101 µM,"COc1cc(F)ccc1-c1ccncc1N(CCS(C)(=O)=O)C(=O)c1cc(C(F)(F)F)nc(C(F)(F)F)c1 [Example 162, N-[4-(4-Fluoro-2-methoxy-phenyl)-pyridin-3-yl]-N-(2-methanesulfonyl-ethyl)-2,6-bis-trifluoromethyl-isonicotinamide]"
14,0.099 µM,"Cc1ccccc1-c1ccncc1N(CCS(C)(=O)=O)C(=O)c1cc(C(F)(F)F)nc(C(F)(F)F)c1 [Example 163, N-(2-Methanesulfonyl-ethyl)-N-(4-o-tolyl-pyridin-3-yl)-2,6-bis-trifluoromethyl-isonicotinamide]"
15,1.7 µM,"Cc1ccccc1-c1ccncc1N(C)C(=O)c1cc(N)cc(C(F)(F)F)c1 [Example 164, 3-amino-N-methyl-N-(4-o-tolylpyridin-3-yl)-5-(trifluoromethyl)benzamide]"
16,0.153 µM,"Cc1ccccc1-c1ccncc1N(CCC#N)C(=O)c1cc(C(F)(F)F)cc(C(F)(F)F)c1 [Example 165, N-(2-Cyano-ethyl)-N-(4-o-tolyl-pyridin-3-yl)-3,5-bis-trifluoromethyl-benzamide]"
17,1.78 µM,"CN(C(=O)c1cc(C(F)(F)F)cc(C(F)(F)F)c1)c1cnccc1C1=CCOCC1 [Example 166, N-[4-(3,6-Dihydro-2H-pyran-4-yl)-pyridin-3-yl]-N-methyl-3,5-bis-trifluoromethyl-benzamide]"

row,EC50,SMILES
1,2.72 µM,"COc1cccc(-c2ccncc2N(C)C(=O)c2cc(C(F)(F)F)cc(C(F)(F)F)c2)c1OC [Example 167, N-[4-(2,3-Dimethoxy-phenyl)-pyridin-3-yl]-N-methyl-3,5-bis-trifluoromethyl-benzamide]"
2,0.041 µM,"CCc1ccccc1-c1ccncc1N(C)C(=O)c1cc(C(F)(F)F)cc(C(F)(F)F)c1 [Example 168, N-[4-(2-Ethyl-phenyl)-pyridin-3-yl]-N-methyl-3,5-bis-trifluoromethyl-benzamide]"
3,0.026 µM,"COc1cc(F)ccc1-c1ccncc1N(C)C(=O)c1cc(Cl)nc(C(F)(F)F)c1 [Example 169, 2-Chloro-N-[4-(4-fluoro-2-methoxy-phenyl)-pyridin-3-yl]-N-methyl-6-trifluoromethyl-isonicotinamide]"
4,0.118 µM,"COc1ncccc1-c1ccncc1N(CC(F)(F)F)C(=O)c1cc(C(F)(F)F)cc(S(=O)(=O)N(C)C)c1 [Example 170, 3-Dimethylsulfamoyl-N-(2-methoxy-[3,4′]bipyridinyl-3′-yl)-N-(2,2,2-trifluoro-ethyl)-5-trifluoromethyl-benzamide]"
5,0.056 µM,"Cc1ccccc1-c1ccncc1N(C)C(=O)c1cc(Cl)nc(C(F)(F)F)c1 [Example 171, 2-Chloro-N-methyl-N-(4-o-tolyl-pyridin-3-yl)-6-trifluoromethyl-isonicotinamide]"
6,0.632 µM,"COC(=O)CN(C(=O)c1cc(C(F)(F)F)cc(S(C)(=O)=O)c1)c1cnccc1-c1cc(F)c(F)cc1OC [Example 172, [[4-(4,5-Difluoro-2-methoxy-phenyl)-pyridin-3-yl]-(3-methanesulfonyl-5-trifluoromethyl-benzoyl)-amino]-acetic acid methyl ester]"
7,0.053 µM,"COC(=O)CN(C(=O)c1cc(C(F)(F)F)nc(C(F)(F)F)c1)c1cnccc1-c1cc(F)c(F)cc1OC [Example 173, {(2,6-Bis-trifluoromethyl-pyridine-4-carbonyl)-[4-(4,5-difluoro-2-methoxy-phenyl)-pyridin-3-yl]-amino}-acetic acid methyl ester]"
8,0.054 µM,"COc1cc(F)c(F)cc1-c1ccncc1N(CC(N)=O)C(=O)c1cc(C(F)(F)F)nc(C(F)(F)F)c1 [Example 174, N-(2-Amino-2-oxoethyl)-N-(4-(4,5-difluoro-2-methoxyphenyl)pyridin-3-yl)-2,6-bis(trifluoromethyl)isonicotinamide]"
9,0.571 µM,"CN(C(=O)c1cc(C(F)(F)F)cc(C(F)(F)F)c1)c1cnccc1-c1ccccc1CC#N [Example 175, N-[4-(2-Cyanomethyl-phenyl)-pyridin-3-yl]-N-methyl-3,5-bis-trifluoromethyl-benzamide]"
10,0.014 µM,"COC(=O)CN(C(=O)c1cc(C(F)(F)F)nc(C(F)(F)F)c1)c1cnccc1-c1ccc(F)cc1OC [Example 176, {(2,6-Bis-trifluoromethyl-pyridine-4-carbonyl)-[4-(4-fluoro-2-methoxy-phenyl)-pyridin-3-yl]-amino}-acetic acid methyl ester]"
11,0.036 µM,"COc1cc(F)ccc1-c1ccncc1N(CC(N)=O)C(=O)c1cc(C(F)(F)F)nc(C(F)(F)F)c1 [Example 177, N-Carbamoylmethyl-N-[4-(4-fluoro-2-methoxy-phenyl)-pyridin-3-yl]-2,6-bis-trifluoromethyl-isonicotinamide]"
12,0.049 µM,"COC(=O)CN(C(=O)c1cc(C(F)(F)F)cc(S(=O)(=O)N(C)C)c1)c1cnccc1-c1cccnc1OC [Example 178, Methyl 2-(3-(N,N-dimethylsulfamoyl)-N-(2-methoxy-3,4′-bipyridin-3′-yl)-5-(trifluoromethyl)benzamido)acetate]"
13,0.197 µM,"COC(=O)CN(C(=O)c1cc(C(F)(F)F)cc(S(C)(=O)=O)c1)c1cnccc1-c1cccnc1OC [Example 180, [(3-Methanesulfonyl-5-trifluoromethyl-benzoyl)-(2-methoxy-[3,4′]bipyridinyl-3′-yl)-amino]-acetic acid methyl ester]"
14,2.95 µM,"COc1ncccc1-c1ccncc1N(CC(N)=O)C(=O)c1cc(C(F)(F)F)cc(S(C)(=O)=O)c1 [Example 181, N-Carbamoylmethyl-3-methanesulfonyl-N-(2-methoxy-[3,4′]bipyridinyl-3′-yl)-5-trifluoromethyl-benzamide]"
15,0.027 µM,"COC(=O)CN(C(=O)c1cc(C(F)(F)F)nc(C(F)(F)F)c1)c1cnccc1-c1cccnc1OC [Example 182, Methyl 2-(N-(2-methoxy-3,4′-bipyridin-3′-yl)-2,6-bis(trifluoromethyl)isonicotinamido)acetate]"
16,0.206 µM,"COc1ncccc1-c1ccncc1N(CC(N)=O)C(=O)c1cc(C(F)(F)F)nc(C(F)(F)F)c1 [Example 183, N-(2-Amino-2-oxoethyl)-N-(2-methoxy-3,4′-bipyridin-3′-yl)-2,6-bis(trifluoromethyl)-isonicotinamide]"
17,0.015 µM,"Cc1ccccc1-c1ccncc1N(C)C(=O)c1cc([N+](=O)[O-])cc(C(F)(F)F)c1 [Example 184, N-Methyl-3-nitro-N-(4-o-tolylpyridin-3-yl)-5-(trifluoromethyl)benzamide]"
